Measurements published in ChEMBL document CHEMBL3259686, “Biologically active dichapetalins from Dichapetalum gelonioides” (J Nat Prod, 2014).
Activity calls are given as the source filed them. The calls are words filed in the database; no cut-off is given here.

Legend:
[1] = test system: MCF7; assay: Cytotoxicity against human MCF7 cells after 48 hrs by MTS assay; type: functional, cell-based; conditions: MCF7, 48 h
[2] = test system: Panagrellus redivivus; assay: Nematicidal activity against Panagrellus redivivus assessed as mortality at 100 ug/ml after 72 hrs by light binocular microscopic analysis (reference value: 7.1 +/- 0.9%); type: functional
[3] = test system: SW480; assay: Cytotoxicity against human SW480 cells after 48 hrs by MTS assay; type: functional, cell-based; conditions: SW480, 48 h
[4] = test system: A549; assay: Cytotoxicity against human A549 cells after 48 hrs by MTS assay; type: functional, cell-based; conditions: A549, 48 h
[5] = test system: HL-60; assay: Cytotoxicity against human HL60 cells after 48 hrs by MTS assay; type: functional, cell-based; conditions: HL-60, 48 h
[6] = test system: SMMC-7721; assay: Cytotoxicity against human SMMC7721 cells after 48 hrs by MTS assay; type: functional, cell-based; conditions: SMMC-7721, 48 h
[7] = test system: Spodoptera exigua; assay: Antifeedant activity against beet armyworm after 24 hrs; type: functional, organism-based
[8] = Antifungal activity against Cylindrocarpon musae at 50 ug/disc after 2 days by disk diffusion method; type: functional
[9] = test system: Fusarium oxysporum f. sp. niveum; assay: Antifungal activity against Fusarium oxysporum f. sp. niveum at 50 ug/disc after 2 days by disk diffusion method; type: functional; conditions: for zone of inhibition at 50 µg/disc: 48 h, read-out: DIZ
[10] = test system: Rhizoctonia solani; assay: Antifungal activity against Rhizoctonia solani at 50 ug/disc after 2 days by disk diffusion method; type: functional; conditions: for zone of inhibition at 50 µg/disc: 48 h, read-out: DIZ
[11] = test system: Colletotrichum gloeosporioides; assay: Antifungal activity against Colletotrichum gloeosporioides at 50 ug/disc after 2 days by disk diffusion method; type: functional; conditions: for zone of inhibition at 50 µg/disc: 48 h, read-out: DIZ
[12] = Cytotoxicity against human WM266.4 cells; type: functional, cell-based; conditions: WM 266-4
[13] = test system: HCT-116; assay: Cytotoxicity against human HCT116 cells; type: functional, cell-based
[14] = test system: RAW264.7; assay: Cytotoxicity against mouse RAW264.7 cells by MTT assay; type: cell-based
[15] = test system: RAW264.7; assay: Ratio of MG132 IC50 to compound IC50 for LPS-induced nitric oxide production in mouse RAW264.7 cells; type: functional
[16] = test system: RAW264.7; assay: Inhibition of LPS-induced nitric oxide production in mouse RAW264.7 cells by Griess method; type: functional, cell-based

In the case of COc1ccc([C@@H]2CC3=CC[C@@]4(C)[C@@H](CC(=O)[C@]5(C)[C@@H]4C=C[C@]46C[C@@]45CC[C@H]6[C@@H]4C[C@@]5(OC[C@](C)(OC(=O)CCc6ccc(O)cc6)[C@H]5O)OC4=O)[C@@]3(C)CO2)cc1, the IC50 [1] is reported as greater than 40 µM, the mortality at 100 µg/mL [2] is reported as 7.8% and the IC50 [3] is reported as greater than 40 µM. For the same compound, the IC50 [4] was greater than 40 µM, the IC50 [5] was greater than 40 µM and the IC50 [6] was greater than 40 µM. It also gave an EC50 [7] of 28.9 microg/cm2.

Work on COC(=O)[C@@H](Cc1cc(C)co1)[C@@H]1CC[C@]23C[C@]12C=C[C@@H]1[C@@]2(C)CC=C4C[C@@H](c5ccccc5)OC[C@]4(C)[C@@H]2CC(=O)[C@]13C yielded an IC50 [1] of 21 µM, a mortality at 100 µg/mL [2] of 2.5% and an IC50 [3] greater than 40 µM. It also gave an IC50 [4] of 17.6 µM, an IC50 [5] of 10.2 µM and an IC50 [6] of 24.8 µM. The EC50 [7] was greater than 100 microg/cm2.

C[C@]1(O)CO[C@@]2(C1)OC(=O)[C@H]([C@@H]1CC[C@]34C[C@]13C=C[C@@H]1[C@@]3(C)CC=C5C[C@@H](c6ccccc6)OC[C@]5(C)[C@@H]3CC(=O)[C@]14C)[C@H]2O gave a mortality at 100 µg/mL [2] of 46.3%.

For NYSTATIN, the inhibition zone (IZ) [8] was 16.6 mm, the inhibition zone (IZ) [9] was 12 mm and the inhibition zone (IZ) [10] was 14.7 mm. For the same compound, the inhibition zone (IZ) [11] was 14.5 mm.

COC(=O)[C@@H](C[C@@]1(OC)C[C@](C)(O)CO1)[C@@H]1CC[C@]23C[C@]12C=C[C@@H]1[C@@]2(C)CC=C4C[C@@H](c5ccccc5)OC[C@]4(C)[C@@H]2CC(=O)[C@]13C gave an EC50 [7] of 3.1 microg/cm2.

C[C@]1(OC(=O)C[C@@H](O)c2ccc(O)cc2)CO[C@@]2(C1)OC(=O)[C@H]([C@@H]1CC[C@]34C[C@]13C=C[C@@H]1[C@@]3(C)CC=C5C[C@@H](c6ccccc6)OC[C@]5(C)[C@@H]3CC(=O)[C@]14C)[C@H]2O gave an IC50 [1] of 3.5 µM, an IC50 [3] of 21 µM and an IC50 [4] of 3 µM. It also gave an IC50 [5] of 5.1 µM and an IC50 [6] of 18.7 µM.

With CC(=O)O[C@@]1(C)CO[C@@]2(C[C@@H]([C@@H]3CC[C@]45C[C@]34C=C[C@@H]3[C@@]4(C)CC=C6C[C@@H](c7ccccc7)OC[C@]6(C)[C@@H]4CC(=O)[C@]35C)C(=O)O2)C1 the inhibition zone (IZ) [8] was 13.8 mm, the zone of inhibition at 50 µg/disc [9] was 11.5 mm and the “diameter of the inhibition zone (DIZ)” value [10] was “inactive”. It also gave a zone of inhibition at 50 µg/disc [11] of 10.1 mm and an EC50 [7] of 11.7 microg/cm2.

Compound C[C@]1(OC(=O)C[C@@H](O)c2ccc(O)cc2)CO[C@@]2(C[C@@H]([C@@H]3CC[C@]45C[C@]34C=C[C@@H]3[C@@]4(C)CC=C6C[C@@H](c7ccccc7)OC[C@]6(C)[C@@H]4CC(=O)[C@]35C)C(=O)O2)C1 has an IC50 [1] of 8.2 µM, an inhibition zone (IZ) [8] of 12.8 mm and a mortality at 100 µg/mL [2] of 20.5%. It also gave a zone of inhibition at 50 µg/disc [9] of 12.8 mm, an IC50 [3] greater than 40 µM and an IC50 [4] of 26.8 µM. It also gave a zone of inhibition at 50 µg/disc [10] of 13.8 mm, an IC50 [5] greater than 40 µM and an IC50 [6] greater than 40 µM. The zone of inhibition at 50 µg/disc [11] was 12.4 mm and the EC50 [7] was 78.7 microg/cm2.

With CC(=O)O[C@@]1(C)CO[C@@]2(C1)OC(=O)[C@H]([C@@H]1CC[C@]34C[C@]13C=C[C@@H]1[C@@]3(C)CC=C5C[C@@H](c6ccccc6)OC[C@]5(C)[C@@H]3[C@@H](O)C(=O)[C@]14C)[C@H]2O the EC50 [12] was 0.078 µM and the EC50 [13] was 0.0099 µM.

Work on COc1ccc([C@@H]2CC3=CC[C@]4(C)[C@H]5C=C[C@]67C[C@]6(CC[C@H]7[C@@H]6C[C@H](/C=C(\C)CO)OC6=O)[C@]5(C)[C@H](O)C[C@H]4[C@@]3(C)CO2)cc1 [DICHAPETALIN K] yielded a mortality at 100 µg/mL [2] of 4.4%.

For COc1ccc([C@@H]2CC3=CC[C@@]4(C)[C@@H](CC(=O)[C@]5(C)[C@@H]4C=C[C@]46C[C@@]45CC[C@H]6[C@@H]4C[C@]5(C[C@@](C)(OC(=O)C[C@@H](O)c6ccc(O)cc6)CO5)OC4=O)[C@@]3(C)CO2)cc1, the mortality at 100 µg/mL [2] was 4.8% and the EC50 [7] was greater than 100 microg/cm2.

Work on C[C@]12CC=C3C[C@@H](c4ccccc4)OC[C@]3(C)[C@@H]1C[C@@H](O)[C@]1(C)[C@@H]2C=C[C@]23C[C@]12CC[C@H]3[C@@H]1C[C@@]2(OC[C@](C)(OC(=O)CCc3ccc(O)cc3)[C@H]2O)OC1=O yielded a mortality at 100 µg/mL [2] of 61.8% and an EC50 [7] of 9.8 microg/cm2.

In the case of C/C(=C\[C@H]1C[C@@H]([C@@H]2CC[C@]34C[C@]23C=C[C@@H]2[C@@]3(C)CC=C5C[C@@H](c6ccccc6)OC[C@]5(C)[C@@H]3C[C@@H](O)[C@]24C)C(=O)O1)CO [DICHAPETALIN A], the inhibition zone (IZ) [8] is reported as 12.8 mm, the Activity [14] is reported as “Non-toxic” and the mortality at 100 µg/mL [2] is reported as 15.3%. The “diameter of the inhibition zone (DIZ)” value [9] was “inactive”, the “Ratio IC50” value [15] was 20 and the zone of inhibition at 50 µg/disc [10] was 10.5 mm. The IC50 [16] was 0.02 µM, the “diameter of the inhibition zone (DIZ)” value [11] was “inactive” and the EC50 [7] was 3.1 microg/cm2.

Compound C/C(=C\[C@H]1C[C@@H]([C@@H]2CC=C3[C@]4(C)[C@H](O)C[C@@H]5[C@](C)(CC=C6C[C@@H](c7ccccc7)OC[C@@]65C)[C@H]4CC[C@]32C)C(=O)O1)CO has a mortality at 100 µg/mL [2] of 3% and an EC50 [7] of 3.4 microg/cm2.
